In patent US8575153B2 (Kowa Company, Ltd., priority 2008, dated 2013):
Structures can show the parent of a compound that is named as a salt.

Target: Recombinant human JAK3 enzyme (JAK3 kinase region; Ala795-Ser1124) (Homo sapiens, UniProt P52333)
Assay: JAK3 Kinase Assay (Kinase-Glo luminescent, ATP consumption)
Conditions: for inhibition at 0.1 µM / inhibition at 1 µM: read-out: Inhibition rate (%) of JAK3 kinase activity

Recombinant human JAK3 enzyme (JAK3 kinase region; Ala795-Ser1124), sequence (P52333 795-1124): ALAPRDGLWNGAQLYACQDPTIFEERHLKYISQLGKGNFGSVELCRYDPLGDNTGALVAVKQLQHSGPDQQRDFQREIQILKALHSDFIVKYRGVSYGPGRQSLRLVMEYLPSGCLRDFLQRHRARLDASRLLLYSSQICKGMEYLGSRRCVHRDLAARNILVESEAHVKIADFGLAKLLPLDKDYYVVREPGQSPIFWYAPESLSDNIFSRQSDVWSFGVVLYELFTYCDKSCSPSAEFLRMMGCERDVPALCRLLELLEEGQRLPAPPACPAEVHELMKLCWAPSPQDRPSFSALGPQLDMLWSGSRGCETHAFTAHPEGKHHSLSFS

SMILES | inhibition at 0.1 µM [%] | further results
NCCS(=O)(=O)Nc1ccc(Nc2cc(NCc3cc(F)cc(F)c3)c(C(N)=O)cn2)cc1 [Example 305, 6-[(4-{[(2-aminoethyl)sulfonyl]amino}phenyl)amino]-4-[(3,5-difluorobenzyl)amino]pyridine-3-carboxyamide] | 77 | –
NC(=O)c1cnc(Nc2ccc(N3CCOCC3)cc2)cc1NCC1CC1 [Example 362, 4-[(cyclopropylmethyl)amino]-6-[(4-morpholinophenyl)amino]pyridine-3-carboxyamide] | – | inhibition at 1 µM: 40%
NC(=O)c1cnc(Nc2ccc(N3CCOCC3)cc2)cc1NC1CCOc2ccccc21 (stereo not drawn) [Example 351, 4-(3,4-dihydro-2H-1-benzopyran-4-ylamino)-6-[(4-morpholinophenyl)amino]pyridine-3-carboxyamide] | – | inhibition at 1 µM: 45%
NC(=O)c1cnc(Nc2ccc(N3CCOCC3)nc2)cc1NCc1ccccc1 [Example 373, 4-benzylamino-6-[(6-morpholinopyridin-3-yl)amino]pyridine-3-carboxyamide] | – | inhibition at 1 µM: 81%
NC(=O)c1cnc(Nc2cccc(N3CCNCC3)c2)cc1NCc1cc(F)cc(F)c1 [Example 225, 4-[(3,5-difluorobenzyl)amino]-6-{[3-(piperazin-1-yl)phenyl]amino}pyridine-3-carboxyamide] | 74 | –
CCN(CC)CCC1CCN(c2ccc(Nc3cc(NCc4ccccc4)c(C(N)=O)cn3)cc2)CC1 [Example 59, 4-(benzylamino)-6-[(4-{4-[2-(diethylamino)ethyl]piperidino}phenyl)amino]pyridine-3-carboxyamide] | 76 | –
CS(=O)(=O)NCCCc1ccc(Nc2cc(NCc3cc(F)cc(F)c3)c(C(N)=O)cn2)cc1 [Example 202] | – | Inhibition rate (%) of JAK3 kinase activity (test compound at 0.1 μM): 88%
NC(=O)c1cnc(Nc2ccc(CN3CCOCC3)cc2)cc1NCc1ccccc1 [Example 318, 4-(benzylamino)-6-{[4-(morpholinomethyl)phenyl]amino}pyridine-3-carboxyamide] | 83 | –
CS(=O)(=O)N1CCN(c2ccc(Nc3cc(NC4CCCCC4)c(C(N)=O)cn3)cc2)CC1 [Example 346, 4-cyclohexylamino-6-({4-[4-(methylsulfonyl)piperazin-1-yl]phenyl}amino)pyridine-3-carboxyamide] | – | inhibition at 1 µM: 72%
NC(=O)c1cnc(Nc2ccc(N3CCNCC3)cc2)cc1NCc1cccnc1 [Example 355, 6-{(4-(piperazin-1-yl)phenyl]amino}-4-[(pyridin-3-ylmethyl)amino}pyridine-3-carboxyamide] | – | inhibition at 1 µM: 92%
CN1CCC(Oc2ccc(Nc3cc(NCc4ccccc4)c(C(N)=O)cn3)cc2)CC1 [Example 52, 4-(benzylamino)-6-({4-[(1-methylpiperidin-4-yl)oxy]phenyl}amino)pyridine-3-carboxyamide] | 72 | –
CN(CCN1CCOCC1)c1ccc(Nc2cc(NCc3ccccc3)c(C(N)=O)cn2)cc1 [Example 71, 4-(benzylamino)-6-({4-[methyl(2-morpholinoethyl)amino]phenyl}amino)pyridine-3-carboxyamide] | 70 | –
NC(=O)c1cnc(Nc2ccc(NC(=O)C3CCNCC3)cc2)cc1NCc1ccccc1 [Example 314, 4-(benzylamino)-6-({4-[piperidin-4-ylcarbonyl]amino]phenyl}amino)pyridine-3-carboxyamide hydrochloride] | 60 | –
CCN(CC)C(=O)N1CCC(Nc2ccc(Nc3cc(NCc4ccccc4)c(C(N)=O)cn3)cc2)CC1 [Example 290, 4-(benzylamino)-6-[(4-{[1-(diethylcarbamoyl)piperidin-4-yl]amino}phenyl)amino]pyridine-3-carboxyamide] | 71 | –
NC(=O)c1cnc(Nc2ccc(NC(=O)[C@@H]3CCCN3)cc2)cc1NCc1ccccc1 [Example 316, 4-(benzylamino)-6-({4-(L-prolylamino)phenyl]amino}pyridine-3-carboxyamide hydrochloride] | 61 | –
COCCNS(=O)(=O)c1ccc(Nc2cc(NCc3cc(F)cc(F)c3)c(C(N)=O)cn2)cc1 [Example 330, 4-[(3,5-difluorobenzyl)amino]-6-({4-[(2-methoxyethyl)sulfamoyl]phenyl}amino)pyridine-3-carboxyamide] | 59 | –
COCCNc1ccc(Nc2cc(NCc3cc(F)cc(F)c3)c(C(N)=O)cn2)cc1 [Example 233, 4-[(3,5-difluorobenzyl)amino]-6-({4-[(2-methoxyethyl)amino]phenyl}amino)pyridine-3-carboxyamide] | 74 | –
NC(=O)c1cnc(Nc2ccc(S(N)(=O)=O)cc2)cc1NCc1cc(F)cc(F)c1 [Example 328, 4-[(3,5-difluorobenzyl)amino]-6-[(4-sulfamoylphenyl)amino]pyridine-3-carboxyamide] | 70 | –
CC(C)N1CCN(c2ccc(Nc3cc(NCc4cccnc4)c(C(N)=O)cn3)cc2)CC1 [Example 356, 6-({4-[4-(propan-2-yl)piperazin-1-yl]phenyl}amino)-4-[(pyridin-3-ylmethyl)amino]pyridine-3-carboxyamide] | – | inhibition at 1 µM: 92%
NC(=O)c1cnc(Nc2ccc(N3CCOCC3)cc2)cc1NC1CCCCC1 [Example 345, 4-cyclohexylamino-6-[(4-morpholinophenyl)amino]pyridine-3-carboxyamide] | – | inhibition at 1 µM: 79%

Now from value to molecule, other results behind:

inhibition at 0.1 µM [%] | SMILES | further results
62 | C[C@@H]1CN(c2ccc(Nc3cc(NCc4cccc(F)c4F)c(C(N)=O)cn3)cc2)C[C@H](C)N1 [Example 140, 4-[(2,3-difluorobenzyl)amino]-6-({4-[(3R,5S)-3,5-dimethylpiperazin-1-yl]phenyl}amino)pyridine-3-carboxyamide] | –
62 | NC(=O)c1cnc(Nc2ccc(N3CCCN(CCO)CC3)cc2)cc1NCc1ccccc1 [Example 245, 4-(benzylamino)-6-({4-[4-(2-hydroxyethyl)-1,4-diazepan-1-yl]phenyl}amino)pyridine-3-carboxyamide] | –
62 | NC(=O)c1cnc(Nc2ccc(NC(=O)[C@@H]3CCCN3)cc2)cc1NCc1cc(F)cc(F)c1 [Example 317, 4-[(3,5-difluorobenzyl)amino]-6-{[4-(L-prolylamino)phenyl]amino}pyridine-3-carboxyamide hydrochloride] | –
55 | Cc1cccc(CNc2cc(Nc3ccc(N4CCOCC4)cc3)ncc2C(N)=O)c1 [Example 77, 4-[(3-methylbenzyl)amino]-6-[(4-morpholinophenyl)amino]pyridine-3-carboxyamide] | –
65 | NC(=O)c1cnc(Nc2ccc(N3CCNCC3)cc2)cc1NCc1ccccc1 [Example 219] | –
78 | NC(=O)c1cnc(Nc2ccc(N3CCNCC3)cc2)cc1NCc1cc(F)ccc1F [Example 222, 4-[(2,5-difluorobenzyl)amino]-6-{[4-(piperazin-1-yl)phenyl]amino}pyridine-3-carboxyamide] | –
58 | COc1ccccc1CNc1cc(Nc2ccc(N3CCN(C(C)C)CC3)cc2)ncc1C(N)=O [Example 147, 4-[(2-methoxybenzyl)amino]-6-({4-[4-(propan-2-yl)piperazin-1-yl]phenyl}amino)pyridine-3-carboxyamide] | –
77 | N#CCC(=O)N1CCN(c2ccc(Nc3cc(NCc4c(F)cccc4F)c(C(N)=O)cn3)cc2)CC1 [Example 266, 6-({4-[4-(cyanoacetyl)piperazin-1-yl]phenyl}amino)-4-[(2,6-difluorobenzyl)amino]pyridine-3-carboxyamide] | –
72 | N#CCC(=O)N1CCN(c2cccc(Nc3cc(NCc4cc(F)cc(F)c4)c(C(N)=O)cn3)c2)CC1 [Example 267, 6-({3-[4-(cyanoacetyl)piperazin-1-yl]phenyl}amino)-4-[(3,5-difluorodibenzyl)amino]pyridine-3-carboxyamide] | –
70 | N#CCCN1CCN(c2ccc(Nc3cc(NCc4ccccc4)c(C(N)=O)cn3)cc2)CC1 [Example 241] | –
59 | CC(C)S(=O)(=O)N1CCN(c2ccc(Nc3cc(NCc4c(F)cccc4F)c(C(N)=O)cn3)cc2)CC1 [Example 172, 4-[(2,6-difluorobenzyl)amino]-6-({4-[4-(propan-2-ylsulfonyl)piperazin-1-yl]phenyl}amino) pyridine-3-carboxyamide] | –
78 | NC(=O)c1cnc(Nc2ccc(N3CCC(CCO)CC3)cc2)cc1NCc1cc(F)cc(F)c1 [Example 179] | –
94 | CC(C)N1CCN(c2ccc(Nc3cc(NCc4c(F)cccc4F)c(C(N)=O)cn3)cc2)CC1 [Example 153, 4-[(2,6-difluorobenzyl)amino]-6-({4-[4-(propan-2-yl)piperazin-1-yl]phenyl}amino)pyridine-3-carboxyamide] | –
59 | CN1CCCN(c2ccc(Nc3cc(NCc4ccccc4)c(C(N)=O)cn3)cc2)CC1 [Example 244, 4-(benzylamino)-6-{[4-(4-methyl-1,4-diazepan-1-yl)phenyl]amino}pyridine-3-carboxyamide] | –
65 | N#CCC(=O)N1CCCN(c2ccc(Nc3cc(NCc4ccccc4)c(C(N)=O)cn3)cc2)CC1 [Example 268, 4-(benzylamino)-6-({4-[4-(cyanoacetyl)-1,4-diazepan-1-yl]phenyl}amino)pyridine-3-carboxyamide] | –
85 | NC(=O)c1cnc(Nc2ccc(N3CCC(O)CC3)cc2)cc1NCc1cccc(F)c1F [Example 187, 4-[(2,3-difluorobenzyl)amino]-6-{[4-(4-hydroxypiperidino)phenyl]amino}pyridine-3-carboxyamide] | –
78 | NC(=O)c1cnc(Nc2ccc(N3CCNCC3)cc2)cc1NCc1cc(F)cc(F)c1 [Example 221, 4-[(3,5-difluorobenzyl)amino]-6-{[4-(piperazin-1-yl)phenyl]amino}pyridine-3-carboxyamide] | –
74 | N#CCC(=O)N1CCN(c2ccc(Nc3cc(NCc4cc(F)ccc4F)c(C(N)=O)cn3)cc2)CC1 [Example 265, 6-({4-[4-(cyanoacetyl)piperazin-1-yl]phenyl}amino)-4-[(2,5-difluorobenzyl)amino]pyridine-3-carboxyamide] | –
63 | Cc1ccccc1CNc1cc(Nc2ccc(N3CCOCC3)cc2)ncc1C(N)=O [Example 76, 4-[(2-methylbenzyl)amino]-6-[(4-morpholinophenyl)amino]pyridine-3-carboxyamide] | –
